In BindingDB's records for doi:10.1021/jm0702377 (University of Liverpool, 2007) one finds Ki data, which are given here for seven compounds.

pKi: −log10 of the molar value.

The experiment deals with T1, Alpha-methylacyl-CoA racemase (Rattus norvegicus, UniProt P70473).
T1 sequence (P70473 whole entry): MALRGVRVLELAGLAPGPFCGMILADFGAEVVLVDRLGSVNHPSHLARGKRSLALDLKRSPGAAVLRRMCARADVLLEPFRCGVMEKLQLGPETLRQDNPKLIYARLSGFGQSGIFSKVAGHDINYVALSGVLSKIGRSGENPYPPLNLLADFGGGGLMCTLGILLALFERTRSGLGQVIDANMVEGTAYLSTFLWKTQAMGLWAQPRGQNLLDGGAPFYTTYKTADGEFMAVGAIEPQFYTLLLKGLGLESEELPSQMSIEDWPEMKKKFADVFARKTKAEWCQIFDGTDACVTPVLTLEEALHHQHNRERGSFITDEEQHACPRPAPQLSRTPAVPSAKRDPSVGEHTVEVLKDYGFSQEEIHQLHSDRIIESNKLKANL
The experiment in a line: AMACR Inhibition Assay. The following applies: pH 7; 37 °C. Here is the method: AMACR activity was determined by monitoring the interconversion of the (25R/S)-isomer of THC-CoA. Reaction product was analyzed by resolution of (25S)-or (25R)-THC-CoA using HPLC, which was carried out with a reversed-phase C18-column and a linear gradient of methanol in potassium phosphate buffer (50 mM, pH 5.3). Kinetic parameters were determined using direct linear plot analysis.
In turn, `CCCCCCCCCCCCCC(C(=O)SCCNC(=O)CCNC(=O)C(O)C(C)(C)COP(=O)(O)OP(=O)(O)OC[C@H]1O[C@@H](n2cnc3c(N)ncnc32)[C@H](O)[C@@H]1OP(=O)(O)O)C(F)F` (some centres not stated) [2-Difluoromethylpentadecanoyl-CoA, 4] showed a negative logarithm of the Ki (pKi) of 4.70.

As for `C[C@@H](CC[C@H](F)[C@@H](C)C(=O)SCCNC(=O)CCNC(=O)C(O)C(C)(C)COP(=O)(O)OP(=O)(O)OC[C@H]1O[C@@H](n2cnc3c(N)ncnc32)[C@H](O)[C@@H]1OP(=O)(O)O)[C@H]1CC[C@H]2[C@@H]3[C@H](O)C[C@@H]4C[C@H](O)CC[C@]4(C)[C@H]3C[C@H](O)[C@]12C` (some centres not stated) [THC-CoA Analogue, 7], the negative logarithm of the Ki (pKi) was 5.42.

With `CCCCCCCCCCCCC(C)C(=O)SCCNC(=O)CCNC(=O)C(O)C(C)(C)COP(=O)(O)OP(=O)(O)OC[C@H]1O[C@@H](n2cnc3c(N)ncnc32)[C@H](O)[C@@H]1OP(=O)(O)O` (some centres not stated) [2-methylmyristoyl CoA, 22], the negative-log Ki (pKi) is 3.86.

`CCCCCCCCCCCCC[C@H](F)[C@@H](C)C(=O)SCCNC(=O)CCNC(=O)C(O)C(C)(C)COP(=O)(O)OP(=O)(O)OC[C@H]1O[C@@H](n2cnc3c(N)ncnc32)[C@H](O)[C@@H]1OP(=O)(O)O` (stereo partly drawn) [((2R,3S)-3-Fluoro-2-methylhexadecanoyl-CoA, 5]: the pKi is 5.89.

On to `CCCCCCCCCCCCC[C@@H](F)[C@H](C)C(=O)SCCNC(=O)CCNC(=O)C(O)C(C)(C)COP(=O)(O)OP(=O)(O)OC[C@H]1O[C@@H](n2cnc3c(N)ncnc32)[C@H](O)[C@@H]1OP(=O)(O)O` (stereo partly drawn) [(2S,3R)-3-fluoro-2-methylhexadecanoyl-CoA, 6], for which the negative-log Ki (pKi) was 5.64.

The compound `CCCCCCCCCCCCC(C(=O)SCCNC(=O)CCNC(=O)C(O)C(C)(C)COP(=O)(O)OP(=O)(O)OC[C@H]1O[C@@H](n2cnc3c(N)ncnc32)[C@H](O)[C@@H]1OP(=O)(O)O)C(F)(F)F` (some centres not stated) [2-Trifluoromethyltetradecanoyl-CoA, 3] gave a negative-log Ki (pKi) of 6.05.

In the case of `CCCCCCC(C)C(=O)SCCNC(=O)CCNC(=O)C(O)C(C)(C)COP(=O)(O)OP(=O)(O)OC[C@H]1O[C@@H](n2cnc3c(N)ncnc32)[C@H](O)[C@@H]1OP(=O)(O)O` (stereo partly drawn) [{[(2R,3S,4R,5R)-5-(6-amino-9H-purin-9-yl)-4-hydroxy-2-({[hydroxy({[hydroxy(3-hydroxy-2,2-dimethyl-3-{[2-({2-[(2-methyloctanoyl)sulfanyl]ethyl}carbamoyl)ethyl]carbamoyl}propoxy)phosphoryl]oxy})phosphoryl]oxy}methyl)oxolan-3-yl]oxy}phosphonic acid], the pKi was 4.35.

By pKi is commonly meant the Ki on a negative log10 scale, so that one unit is a factor of ten. Low readings indicate a large Ki, high ones a small Ki.
